Data: US20080009418A1, “Selective Inhibitors” (Alchemia LTD., priority 2004, published 2008)

Tests used:
[1] = molecular target: T1, Human melanin-concentrating hormone (MCH1) (Homo sapiens, UniProt Q99705); assay: Radioligand binding, human melanin-concentrating hormone MCH1 membranes, FlashPlate, [125I]-S36057; conditions: compound at 10 μM
T1 construct: purchased Perkin Elmer Biosignal
In short: (§1)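 Cloned human receptor membranes were coated onto FlashPlate wells and incubated with radioligand and compound (added from a 0.5 mM DMSO daughter plate) for 1 hour at room temperature in the dark. Scintillation counting gave percent inhibition, with DMSO defining total and reference ligand defining non-specific binding.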

Human neurokinin (NK1) = molecular target: T2, Human neurokinin (NK1) (Homo sapiens, UniProt P25103); assay: Radioligand binding, human neurokinin NK1 membranes, filtration, [125I]-Substance P; conditions: compound at 10 μM, [125I]-Substance P
T2 construct: purchased Perkin Elmer Biosignal
T2 sequence (P25103 whole entry): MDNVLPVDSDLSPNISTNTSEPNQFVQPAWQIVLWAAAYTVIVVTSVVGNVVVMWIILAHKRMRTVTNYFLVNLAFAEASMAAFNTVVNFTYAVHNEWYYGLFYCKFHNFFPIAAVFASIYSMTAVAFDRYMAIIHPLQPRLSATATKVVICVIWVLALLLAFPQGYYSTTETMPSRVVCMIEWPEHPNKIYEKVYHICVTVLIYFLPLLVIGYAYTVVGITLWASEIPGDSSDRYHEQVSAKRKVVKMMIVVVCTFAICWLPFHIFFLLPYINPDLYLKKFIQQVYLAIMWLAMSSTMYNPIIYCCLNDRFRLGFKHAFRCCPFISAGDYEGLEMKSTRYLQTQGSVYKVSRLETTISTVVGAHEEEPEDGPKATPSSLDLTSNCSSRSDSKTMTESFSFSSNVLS
In short: (§2)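 Percent inhibition of radioligand binding measured on recombinant human membranes: NK1 with [125I]-Substance P, KOP with [3H]-Diprenorphine. Incubation 1 h at room temperature, then harvest onto 0.3% PEI-soaked filters, cold Tris-HCl pH 7.4 washes and scintillation counting; non-specific binding from reference ligand wells.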

Human κ-Opioid (KOP) = molecular target: T3, Human κ-Opioid (KOP) (Homo sapiens, UniProt P41145); assay: Radioligand binding, human κ-opioid (KOP) membranes, filtration, [3H]-Diprenorphine; conditions: compound at 10 μM, [3H]-Diprenorphine
T3 construct: purchased Perkin Elmer Biosignal
T3 sequence (P41145 whole entry): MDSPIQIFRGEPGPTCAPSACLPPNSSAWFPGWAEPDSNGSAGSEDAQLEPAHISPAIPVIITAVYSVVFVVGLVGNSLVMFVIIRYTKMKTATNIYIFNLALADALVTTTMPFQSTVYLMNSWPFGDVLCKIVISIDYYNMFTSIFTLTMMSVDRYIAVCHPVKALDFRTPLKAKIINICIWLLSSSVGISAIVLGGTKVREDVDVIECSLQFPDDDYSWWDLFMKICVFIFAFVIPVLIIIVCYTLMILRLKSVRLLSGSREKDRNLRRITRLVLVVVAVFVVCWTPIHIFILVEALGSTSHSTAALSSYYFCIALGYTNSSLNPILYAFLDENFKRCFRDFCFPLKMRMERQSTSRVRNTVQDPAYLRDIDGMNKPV
In short: as §2

Human μ-opioid (MOP) = molecular target: T4, Human μ-opioid (MOP) (Homo sapiens, UniProt P35372); assay: Radioligand binding, human μ-opioid (MOP) membranes, FlashPlate, [3H]-Naloxone; conditions: compound at 10 μM, [3H]-Naloxone
T4 construct: purchased Perkin Elmer Biosignal
T4 sequence (P35372 whole entry): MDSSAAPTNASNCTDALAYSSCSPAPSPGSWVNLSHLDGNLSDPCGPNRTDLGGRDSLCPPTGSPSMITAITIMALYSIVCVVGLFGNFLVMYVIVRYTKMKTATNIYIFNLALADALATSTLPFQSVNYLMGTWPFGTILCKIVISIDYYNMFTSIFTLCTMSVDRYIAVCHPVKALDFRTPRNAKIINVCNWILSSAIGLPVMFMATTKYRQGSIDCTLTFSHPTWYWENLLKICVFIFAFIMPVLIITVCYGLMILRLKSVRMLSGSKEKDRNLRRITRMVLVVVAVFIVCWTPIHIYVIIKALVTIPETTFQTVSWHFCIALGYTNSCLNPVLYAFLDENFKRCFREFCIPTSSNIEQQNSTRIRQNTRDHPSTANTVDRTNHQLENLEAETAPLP
In short: as §1

Mouse urotensin (mUR2) = molecular target: T5, Mouse urotensin (mUR2) (Mus musculus, UniProt Q8VIH9); assay: Radioligand binding, mouse urotensin mUR2 membranes, FlashPlate, [125I]-Urotensin II; conditions: compound at 10 μM, [125I]-Urotensin II
T5 construct: purchased Perkin Elmer Biosignal
T5 sequence (Q8VIH9 1-385): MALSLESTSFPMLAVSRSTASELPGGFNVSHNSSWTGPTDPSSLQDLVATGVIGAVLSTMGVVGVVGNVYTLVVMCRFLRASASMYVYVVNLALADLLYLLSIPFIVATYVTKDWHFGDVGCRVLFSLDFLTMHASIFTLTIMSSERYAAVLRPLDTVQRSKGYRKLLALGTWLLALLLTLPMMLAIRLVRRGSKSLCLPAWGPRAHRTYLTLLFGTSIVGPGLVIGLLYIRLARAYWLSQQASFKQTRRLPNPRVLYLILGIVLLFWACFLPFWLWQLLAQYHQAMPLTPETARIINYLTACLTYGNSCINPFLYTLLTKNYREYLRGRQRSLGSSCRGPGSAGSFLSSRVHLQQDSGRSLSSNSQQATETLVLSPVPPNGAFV
In short: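 Cloned mouse urotensin (mUR2) receptor membranes from Perkin Elmer Biosignal were immobilized in FlashPlate microplates using a proprietary coating. Each well got 19.5 μl buffer, then 0.5 μl of DMSO, reference ligand, or compound. Adding 5 μl of [125I]-Urotensin II, diluted to 5× final concentration in binding buffer, started binding. Plates were sealed with TopSeal-A and incubated 1 hour at room temperature in the dark. Wells were counted for 30 seconds each on a TopCount after a 60-second delay, and percentage inhibition was calculated.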

Human melanocortin (MC5) = molecular target: T6, Human melanocortin (MC5) (Homo sapiens, UniProt P33032); assay: Radioligand binding, human melanocortin MC5 membranes, FlashPlate, [125I]-NDP-αMSH; conditions: compound at 10 μM, [125I]-NDP-αMSH
T6 construct: purchased Perkin Elmer Biosignal
T6 sequence (P33032 whole entry): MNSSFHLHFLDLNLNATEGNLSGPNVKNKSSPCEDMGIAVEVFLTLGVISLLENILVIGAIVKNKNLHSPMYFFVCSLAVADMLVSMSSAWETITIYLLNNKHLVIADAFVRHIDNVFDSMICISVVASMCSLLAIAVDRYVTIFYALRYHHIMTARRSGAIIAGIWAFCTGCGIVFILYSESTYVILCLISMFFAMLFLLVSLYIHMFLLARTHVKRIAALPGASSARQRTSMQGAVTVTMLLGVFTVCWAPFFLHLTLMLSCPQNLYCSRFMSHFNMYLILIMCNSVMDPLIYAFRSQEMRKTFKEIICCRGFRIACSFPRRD
In short: as §1

Human δ-opioid (DOP) = molecular target: T7, Human δ-opioid (DOP) (Homo sapiens, UniProt P41143); assay: Radioligand binding, human δ-opioid (DOP) membranes, FlashPlate, [3H]-Bremazocine; conditions: compound at 10 μM, [3H]-Bremazocine
T7 construct: purchased Perkin Elmer Biosignal
T7 sequence (P41143 whole entry): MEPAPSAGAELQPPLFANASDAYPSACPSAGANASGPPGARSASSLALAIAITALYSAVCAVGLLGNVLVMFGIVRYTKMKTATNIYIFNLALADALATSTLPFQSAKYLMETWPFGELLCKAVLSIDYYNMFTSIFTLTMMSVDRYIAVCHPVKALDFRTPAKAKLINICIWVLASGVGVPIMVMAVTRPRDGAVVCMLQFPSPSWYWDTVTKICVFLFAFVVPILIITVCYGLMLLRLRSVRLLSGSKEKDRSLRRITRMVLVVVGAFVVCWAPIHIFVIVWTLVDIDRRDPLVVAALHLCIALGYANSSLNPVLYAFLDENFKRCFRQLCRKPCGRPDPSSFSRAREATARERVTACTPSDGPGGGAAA
In short: as §1

Human Melanocortin (MC3) = molecular target: T8, Human Melanocortin (MC3) (Homo sapiens, UniProt P41968); assay: Radioligand binding, human melanocortin MC3 membranes, FlashPlate, [125I]-NDP-αMSH; conditions: compound at 10 μM, [125I]-NDP-αMSH
T8 construct: purchased Perkin Elmer Biosignal
T8 sequence (P41968 whole entry): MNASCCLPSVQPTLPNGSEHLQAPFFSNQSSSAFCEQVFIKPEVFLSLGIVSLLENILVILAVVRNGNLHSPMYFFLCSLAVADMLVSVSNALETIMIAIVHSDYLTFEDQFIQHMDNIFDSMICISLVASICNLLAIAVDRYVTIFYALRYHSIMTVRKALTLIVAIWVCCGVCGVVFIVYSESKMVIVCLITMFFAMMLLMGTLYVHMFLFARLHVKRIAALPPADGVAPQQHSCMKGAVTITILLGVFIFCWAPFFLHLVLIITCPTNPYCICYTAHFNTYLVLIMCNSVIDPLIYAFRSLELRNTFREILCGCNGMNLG
In short: as §1

Human Melanocortin (MC4) = molecular target: T9, Human Melanocortin (MC4) (Homo sapiens, UniProt P32245); assay: Radioligand binding, human melanocortin MC4 membranes, FlashPlate, [125I]-NDP-αMSH; conditions: compound at 10 μM, [125I]-NDP-αMSH
T9 construct: purchased Perkin Elmer Biosignal
T9 sequence (P32245 whole entry): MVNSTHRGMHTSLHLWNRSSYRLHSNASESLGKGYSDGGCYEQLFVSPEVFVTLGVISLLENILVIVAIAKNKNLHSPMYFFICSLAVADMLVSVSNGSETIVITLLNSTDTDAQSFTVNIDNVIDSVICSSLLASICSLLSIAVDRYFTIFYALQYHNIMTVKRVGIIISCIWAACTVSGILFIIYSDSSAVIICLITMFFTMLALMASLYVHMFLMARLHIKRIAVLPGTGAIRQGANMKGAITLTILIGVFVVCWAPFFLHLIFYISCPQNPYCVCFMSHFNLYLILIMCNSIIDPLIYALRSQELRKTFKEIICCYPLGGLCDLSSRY
In short: as §1

[2] = molecular target: T10, Human neuropeptide Y (NPY-Y1) (Homo sapiens, UniProt P25929); assay: Radioligand binding, human neuropeptide Y NPY-Y1 membranes, FlashPlate, [125I]-PYY; conditions: compound at 10 μM, [125I]-PYY
T10 construct: purchased Perkin Elmer Biosignal
T10 sequence (P25929 1-384): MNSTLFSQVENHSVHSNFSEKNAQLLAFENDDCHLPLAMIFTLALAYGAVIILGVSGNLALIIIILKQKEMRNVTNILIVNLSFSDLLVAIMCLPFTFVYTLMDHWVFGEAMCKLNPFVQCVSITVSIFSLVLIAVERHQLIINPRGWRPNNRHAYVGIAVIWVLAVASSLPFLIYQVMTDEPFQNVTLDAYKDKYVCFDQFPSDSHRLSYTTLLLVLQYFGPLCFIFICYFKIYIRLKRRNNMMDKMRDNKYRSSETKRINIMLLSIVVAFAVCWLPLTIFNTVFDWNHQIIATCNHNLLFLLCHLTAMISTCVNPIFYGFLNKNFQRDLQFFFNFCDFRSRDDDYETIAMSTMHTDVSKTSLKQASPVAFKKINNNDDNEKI
In short: as §1

Human opioid (ORL1) = molecular target: T11, Human opioid (ORL1) (Homo sapiens, UniProt P41146); assay: Radioligand binding, human opioid ORL1 membranes, FlashPlate, [125I]-Nociceptin; conditions: compound at 10 μM, [125I]-Nociceptin
T11 construct: purchased Perkin Elmer Biosignal
T11 sequence (P41146 whole entry): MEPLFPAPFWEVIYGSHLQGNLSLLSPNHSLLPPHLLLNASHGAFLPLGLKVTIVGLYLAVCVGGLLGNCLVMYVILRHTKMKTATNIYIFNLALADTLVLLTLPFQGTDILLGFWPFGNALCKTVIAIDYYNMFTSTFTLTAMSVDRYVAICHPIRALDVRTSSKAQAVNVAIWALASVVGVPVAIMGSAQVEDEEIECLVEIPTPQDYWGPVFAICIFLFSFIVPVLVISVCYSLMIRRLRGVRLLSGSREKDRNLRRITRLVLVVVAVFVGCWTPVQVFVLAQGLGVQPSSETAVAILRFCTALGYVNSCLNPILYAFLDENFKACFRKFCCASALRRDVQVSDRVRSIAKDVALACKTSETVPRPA
In short: as §1

T1 sequence (Q99705 whole entry): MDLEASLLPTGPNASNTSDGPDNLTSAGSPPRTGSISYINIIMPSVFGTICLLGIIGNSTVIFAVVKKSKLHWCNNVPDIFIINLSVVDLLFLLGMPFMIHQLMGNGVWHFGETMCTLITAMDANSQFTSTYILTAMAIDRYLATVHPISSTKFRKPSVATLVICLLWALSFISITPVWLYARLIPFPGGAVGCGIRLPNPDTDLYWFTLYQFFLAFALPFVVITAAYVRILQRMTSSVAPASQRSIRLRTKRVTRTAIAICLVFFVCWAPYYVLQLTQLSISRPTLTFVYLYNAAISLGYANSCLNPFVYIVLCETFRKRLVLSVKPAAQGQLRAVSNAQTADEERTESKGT

CSC1O[C@H](COCc2ccc(Cl)cc2)[C@@H](O)[C@@H](OCc2ccc(-c3ccccc3)cc2)[C@H]1NC(=O)CCN (stereo partly shown) [compound 290]
A6: inhibition of radioligand binding, human melanin-concentrating hormone (MCH1) ([1]; [125I]-S36057): − (“−” indicates less than 50% inhibition at 10 μM) | A8: inhibition of radioligand binding, human neurokinin (NK1) (Human neurokinin (NK1)): + (“+” indicates greater than 50% inhibition at 10 μM) | A2: inhibition of radioligand binding, human κ-opioid (KOP) (Human κ-Opioid (KOP)): − (“−” indicates less than 50% inhibition at 10 μM) | A7: inhibition of radioligand binding, human μ-opioid (MOP) (Human μ-opioid (MOP)): − (“−” indicates less than 50% inhibition at 10 μM) | A11: inhibition of radioligand binding, mouse urotensin (mUR2) (Mouse urotensin (mUR2)): − (“−” indicates less than 50% inhibition at 10 μM) | A5: inhibition of radioligand binding, human melanocortin (MC5) (Human melanocortin (MC5)): + (“+” indicates greater than 50% inhibition at 10 μM) | A1: inhibition of radioligand binding, human δ-opioid (DOP) (Human δ-opioid (DOP)): − (“−” indicates less than 50% inhibition at 10 μM) | A3: inhibition of radioligand binding, human melanocortin (MC3) (Human Melanocortin (MC3)): − (“−” indicates less than 50% inhibition at 10 μM) | A4: inhibition of radioligand binding, human melanocortin (MC4) (Human Melanocortin (MC4)): − (“−” indicates less than 50% inhibition at 10 μM) | A9: inhibition of radioligand binding, human neuropeptide Y (NPY-Y1) [2]: − (“−” indicates less than 50% inhibition at 10 μM) | A10: inhibition of radioligand binding, human opioid (ORL1) (Human opioid (ORL1)): − (“−” indicates less than 50% inhibition at 10 μM)

COCC1OC(OCc2ccc(Cl)cc2)C(NC(=O)CN)C(OCc2ccc(Cl)cc2)C1O (stereo not shown) [compound 199]
A6: inhibition of radioligand binding ([1]; [125I]-S36057, FlashPlate): − (“−” indicates less than 50% inhibition at 10 μM) | A8: inhibition of radioligand binding (Human neurokinin (NK1); filtration): + (“+” indicates greater than 50% inhibition at 10 μM) | A2: inhibition of radioligand binding (Human κ-Opioid (KOP); filtration): − (“−” indicates less than 50% inhibition at 10 μM) | A7: inhibition of radioligand binding (Human μ-opioid (MOP); FlashPlate): − (“−” indicates less than 50% inhibition at 10 μM) | A11: inhibition of radioligand binding (Mouse urotensin (mUR2); FlashPlate): − (“−” indicates less than 50% inhibition at 10 μM) | A5: inhibition of radioligand binding (Human melanocortin (MC5); FlashPlate): − (“−” indicates less than 50% inhibition at 10 μM) | A1: inhibition of radioligand binding (Human δ-opioid (DOP); FlashPlate): − (“−” indicates less than 50% inhibition at 10 μM) | A3: inhibition of radioligand binding (Human Melanocortin (MC3); FlashPlate): − (“−” indicates less than 50% inhibition at 10 μM) | A4: inhibition of radioligand binding (Human Melanocortin (MC4); FlashPlate): − (“−” indicates less than 50% inhibition at 10 μM) | A9: inhibition of radioligand binding ([2]; FlashPlate): − (“−” indicates less than 50% inhibition at 10 μM) | A10: inhibition of radioligand binding (Human opioid (ORL1); FlashPlate): − (“−” indicates less than 50% inhibition at 10 μM)
